Some results are limits rather than exact numbers.

One assay deals with D(1A) dopamine receptor (Rattus norvegicus, UniProt P18901). In words: Binding affinity towards D1 receptor using [3H]-SCH- 23390 in rat striatal tissue. Format: tissue-based, Striatum.
The target of the next assay is D(3) dopamine receptor (Homo sapiens, UniProt P35462). In words: biochemical.
For a further assay, the target named is D(2) dopamine receptor (Homo sapiens, UniProt P14416).
Assay [1] deals with T1, 5-hydroxytryptamine receptor 1A (Rattus norvegicus, UniProt P19327).
T1 sequence (P19327 whole entry): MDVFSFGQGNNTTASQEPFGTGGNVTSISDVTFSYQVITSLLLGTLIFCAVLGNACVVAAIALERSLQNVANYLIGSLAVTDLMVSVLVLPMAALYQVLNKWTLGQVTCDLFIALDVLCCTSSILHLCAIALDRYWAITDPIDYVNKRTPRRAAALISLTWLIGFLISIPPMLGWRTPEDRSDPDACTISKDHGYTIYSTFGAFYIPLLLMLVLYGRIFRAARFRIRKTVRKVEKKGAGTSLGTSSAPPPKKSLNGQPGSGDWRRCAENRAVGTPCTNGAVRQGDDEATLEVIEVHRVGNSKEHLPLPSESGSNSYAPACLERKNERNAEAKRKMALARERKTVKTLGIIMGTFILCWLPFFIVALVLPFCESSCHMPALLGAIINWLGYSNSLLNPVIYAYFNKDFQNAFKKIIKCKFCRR
In words: Binding affinity towards 5-hydroxytryptamine 1A receptor using [3H]8-OH-DPAT in rat hippocampus. Format: tissue-based.

The target of assay [2] is T2, Adrenergic receptor alpha-1 (Rattus norvegicus, UniProt P15823+P23944+P43140).
T2 sequence (P15823 whole entry): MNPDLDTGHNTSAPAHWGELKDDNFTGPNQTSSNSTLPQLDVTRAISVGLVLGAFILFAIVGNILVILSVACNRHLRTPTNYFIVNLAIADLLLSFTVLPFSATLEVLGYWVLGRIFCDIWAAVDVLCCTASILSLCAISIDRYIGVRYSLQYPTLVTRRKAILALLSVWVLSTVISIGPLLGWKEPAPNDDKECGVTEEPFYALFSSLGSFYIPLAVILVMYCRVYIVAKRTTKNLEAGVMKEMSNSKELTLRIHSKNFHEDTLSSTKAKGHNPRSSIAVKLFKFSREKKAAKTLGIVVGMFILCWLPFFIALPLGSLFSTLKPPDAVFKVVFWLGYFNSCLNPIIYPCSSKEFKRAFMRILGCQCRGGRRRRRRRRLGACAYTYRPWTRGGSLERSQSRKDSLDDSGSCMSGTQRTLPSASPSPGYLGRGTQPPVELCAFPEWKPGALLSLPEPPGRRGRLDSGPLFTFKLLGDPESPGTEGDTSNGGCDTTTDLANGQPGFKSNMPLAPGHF
T2 sequence (P23944 whole entry): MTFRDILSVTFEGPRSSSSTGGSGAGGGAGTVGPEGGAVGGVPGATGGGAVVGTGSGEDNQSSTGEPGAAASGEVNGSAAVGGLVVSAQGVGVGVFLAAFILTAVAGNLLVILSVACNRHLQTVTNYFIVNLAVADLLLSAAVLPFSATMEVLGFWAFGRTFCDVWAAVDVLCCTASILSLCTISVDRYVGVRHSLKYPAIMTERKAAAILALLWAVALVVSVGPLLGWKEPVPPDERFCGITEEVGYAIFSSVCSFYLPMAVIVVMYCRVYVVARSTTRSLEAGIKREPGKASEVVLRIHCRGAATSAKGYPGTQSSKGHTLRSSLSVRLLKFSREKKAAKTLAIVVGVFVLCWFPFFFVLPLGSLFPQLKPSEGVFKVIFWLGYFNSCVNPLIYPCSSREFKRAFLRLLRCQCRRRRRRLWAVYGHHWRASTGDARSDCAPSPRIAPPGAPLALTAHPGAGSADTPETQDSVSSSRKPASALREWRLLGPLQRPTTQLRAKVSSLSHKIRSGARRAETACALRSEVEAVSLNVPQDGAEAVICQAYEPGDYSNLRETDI
T2 sequence (P43140 whole entry): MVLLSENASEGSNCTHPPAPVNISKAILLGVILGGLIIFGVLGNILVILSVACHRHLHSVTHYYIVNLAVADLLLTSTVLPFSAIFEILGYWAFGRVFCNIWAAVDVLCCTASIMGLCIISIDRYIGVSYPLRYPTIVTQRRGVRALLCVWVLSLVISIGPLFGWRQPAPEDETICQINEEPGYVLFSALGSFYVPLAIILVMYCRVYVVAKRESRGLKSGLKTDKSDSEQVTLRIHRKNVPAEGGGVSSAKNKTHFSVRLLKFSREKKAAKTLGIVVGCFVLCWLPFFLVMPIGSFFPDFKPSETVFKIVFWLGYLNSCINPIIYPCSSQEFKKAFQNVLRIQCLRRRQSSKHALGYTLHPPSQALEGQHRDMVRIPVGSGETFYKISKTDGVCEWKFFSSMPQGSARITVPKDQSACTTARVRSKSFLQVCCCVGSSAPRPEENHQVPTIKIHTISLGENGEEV
As to the kind of experiment: Compound was evaluated for binding affinity towards Alpha-1 adrenergic receptor using [3H]prazosin in rat heart.

The subject of assay [3] is Rattus norvegicus. As to the kind of experiment: Selectivity for mesolimbic over nigrostriatal dopamine system in rat brain as ventral tegmental area infusion of muscimol induced locomotor activity (LMA) by sc dose. In kind it is functional.
Assay [4] has as its system Rattus norvegicus. As to the kind of experiment: Selectivity for mesolimbic over nigrostriatal dopamine system in rat brain as substania nigra zona reticulata infusion of muscimol-induced locomotor activity (LMA) by sc dose. Format: functional.
Assay [5] addresses T3, D(4) dopamine receptor (Homo sapiens, UniProt P21917).
T3 sequence (P21917 whole entry): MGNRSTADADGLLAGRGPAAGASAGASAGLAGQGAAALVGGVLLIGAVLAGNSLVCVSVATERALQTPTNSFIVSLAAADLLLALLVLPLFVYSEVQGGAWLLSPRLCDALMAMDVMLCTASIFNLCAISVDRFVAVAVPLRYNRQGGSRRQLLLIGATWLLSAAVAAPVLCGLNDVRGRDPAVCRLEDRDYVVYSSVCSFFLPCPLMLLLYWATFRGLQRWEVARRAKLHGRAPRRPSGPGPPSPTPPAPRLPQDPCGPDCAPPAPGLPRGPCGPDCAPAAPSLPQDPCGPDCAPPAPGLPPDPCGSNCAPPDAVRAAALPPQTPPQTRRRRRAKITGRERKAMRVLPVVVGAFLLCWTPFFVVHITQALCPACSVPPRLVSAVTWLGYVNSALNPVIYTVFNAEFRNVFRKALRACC
As to the kind of experiment: Binding affinity towards Chinese hamster ovary cells transfected with human D4 receptor using [3H]spiperone. Format: cell-based.

Assay [6] deals with Serotonin 3 (5-HT3) receptor. In words: Binding affinity towards 5-hydroxytryptamine 3 receptor. In kind it is protein-complex assay.
Assay [7] has as its target T2, Adrenergic receptor alpha-1. In words: Binding affinity towards Alpha-1 adrenergic receptor using [3H]prazosin in rat heart.
The target in assay [8] is T3, D(4) dopamine receptor. In words: Binding affinity towards Dopamine D4 receptor.
Assay [9] concerns the target Adrenergic receptor alpha-1 (Homo sapiens) (UniProt P35348+P25100+P35368). In words: Binding affinity towards Alpha-1 adrenergic receptor. In kind it is protein assay.
The target in assay [10] is 5-hydroxytryptamine receptor 2A (Bos taurus) (UniProt Q75Z89). In words: Binding affinity towards 5-hydroxytryptamine 2 receptor.
Sequence of 5-hydroxytryptamine receptor 2A (Bos taurus) (Q75Z89 whole entry): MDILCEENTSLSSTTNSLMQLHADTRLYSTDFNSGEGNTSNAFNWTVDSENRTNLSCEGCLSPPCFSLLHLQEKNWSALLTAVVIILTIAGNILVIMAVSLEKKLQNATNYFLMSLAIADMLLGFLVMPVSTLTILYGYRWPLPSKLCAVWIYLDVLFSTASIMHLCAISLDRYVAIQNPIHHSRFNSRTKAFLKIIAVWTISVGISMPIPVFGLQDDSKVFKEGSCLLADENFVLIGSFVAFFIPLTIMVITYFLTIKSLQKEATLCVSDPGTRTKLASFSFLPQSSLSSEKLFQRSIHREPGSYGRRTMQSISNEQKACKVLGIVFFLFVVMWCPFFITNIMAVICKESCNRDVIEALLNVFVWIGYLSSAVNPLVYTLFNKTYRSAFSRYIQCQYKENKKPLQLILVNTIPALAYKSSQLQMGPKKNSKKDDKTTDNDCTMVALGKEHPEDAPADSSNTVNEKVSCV

Sequence of D(3) dopamine receptor (P35462 whole entry): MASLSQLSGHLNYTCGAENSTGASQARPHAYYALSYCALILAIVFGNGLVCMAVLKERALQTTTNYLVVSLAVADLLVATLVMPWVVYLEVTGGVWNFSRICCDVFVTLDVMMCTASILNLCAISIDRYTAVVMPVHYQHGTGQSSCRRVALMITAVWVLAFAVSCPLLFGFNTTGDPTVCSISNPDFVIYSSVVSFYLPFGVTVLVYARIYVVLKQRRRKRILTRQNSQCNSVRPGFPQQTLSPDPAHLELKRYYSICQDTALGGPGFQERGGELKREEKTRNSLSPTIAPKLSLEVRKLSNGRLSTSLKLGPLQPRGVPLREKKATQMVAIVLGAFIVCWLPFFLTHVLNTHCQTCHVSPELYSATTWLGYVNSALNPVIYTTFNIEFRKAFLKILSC
Sequence of D(1A) dopamine receptor (P18901 whole entry): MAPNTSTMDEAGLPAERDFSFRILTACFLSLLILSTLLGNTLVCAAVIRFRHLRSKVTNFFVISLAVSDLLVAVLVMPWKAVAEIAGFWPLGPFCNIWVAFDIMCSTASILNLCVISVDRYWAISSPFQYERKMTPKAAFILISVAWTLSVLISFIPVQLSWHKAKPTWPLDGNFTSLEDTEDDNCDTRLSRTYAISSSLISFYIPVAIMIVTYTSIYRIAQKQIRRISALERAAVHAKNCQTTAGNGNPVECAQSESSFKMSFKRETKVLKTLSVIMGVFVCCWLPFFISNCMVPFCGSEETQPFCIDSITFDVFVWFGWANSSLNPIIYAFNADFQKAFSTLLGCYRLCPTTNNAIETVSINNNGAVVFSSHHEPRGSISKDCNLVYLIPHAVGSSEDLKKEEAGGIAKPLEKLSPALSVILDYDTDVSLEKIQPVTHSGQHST
Sequence of D(2) dopamine receptor (P14416 whole entry): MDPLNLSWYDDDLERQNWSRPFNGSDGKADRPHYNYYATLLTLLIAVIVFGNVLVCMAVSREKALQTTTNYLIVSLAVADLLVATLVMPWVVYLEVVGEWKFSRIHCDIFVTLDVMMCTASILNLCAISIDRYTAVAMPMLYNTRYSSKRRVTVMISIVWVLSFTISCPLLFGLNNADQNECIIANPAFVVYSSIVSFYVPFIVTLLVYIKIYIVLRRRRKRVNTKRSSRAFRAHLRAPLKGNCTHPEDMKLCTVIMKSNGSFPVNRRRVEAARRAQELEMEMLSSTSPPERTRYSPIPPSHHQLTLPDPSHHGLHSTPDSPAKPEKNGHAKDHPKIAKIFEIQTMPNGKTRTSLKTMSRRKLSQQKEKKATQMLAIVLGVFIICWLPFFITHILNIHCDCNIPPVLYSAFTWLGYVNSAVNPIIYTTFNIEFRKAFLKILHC

For `COc1ccccc1N1CCN(CCCCNC(=O)c2ccc(-c3ccc(S(C)(=O)=O)cc3)cc2)CC1`, the inhibition constant (Ki) (commonly a measure of affinity in units of concentration, obtained from inhibition or displacement) at D(1A) dopamine receptor is 0.158 µM; on D(3) dopamine receptor it was 0.000316 µM; at D(2) dopamine receptor, 0.0251 µM; in [1] it was 0.02 µM. The “Log Ki” value in [2] is on record as -7.9.
Take `CN1CCN(C2=Nc3cc(Cl)ccc3Nc3ccccc32)CC1` [CLOZAPINE]: the median effective dose (ED50) (commonly the dose that gives a 50% effect, or the effect in half of the subjects) with Rattus norvegicus [3] amounted to 0.002 mg/kg.
In the case of `COc1ccc(OC)c(N2CCN(CCCCNC(=O)c3ccc(Br)cc3)CC2)c1`, the figures for the inhibition constant (Ki) (at D(3) dopamine receptor; on D(2) dopamine receptor; in [1]) were 0.00316 µM, 0.1 µM and 0.251 µM, respectively. Also, the “Log Ki” value in assay [2] is -7.5.
Consider `O=C(CCCN1CCC(O)(c2ccc(Cl)cc2)CC1)c1ccc(F)cc1` [HALOPERIDOL], for which, in the assay on Rattus norvegicus [4], it took a dose of 0.05 mg/kg to reach the 50% effect level (ED50).
For `COc1ccccc1N1CCN(CCCCNC(=O)c2ccc(Br)cc2)CC1`, the inhibitory constant (Ki) was 0.501 µM at D(1A) dopamine receptor; 0.000501 µM on D(3) dopamine receptor; 0.0501 µM on D(4) dopamine receptor [5]; 0.0398 µM on D(2) dopamine receptor; 0.0126 µM in assay [1]. In [2], the “Log Ki” value is -7.9.
On to `COc1ccccc1N1CCN(CCCCNC(=O)c2ccc(-c3ccc(C(C)=O)cc3)cc2)CC1`, for which the Ki was 0.398 µM at D(1A) dopamine receptor; 0.000316 µM at D(3) dopamine receptor; 0.0631 µM on D(4) dopamine receptor [8]; 0.0398 µM at D(2) dopamine receptor; 0.00316 µM in assay [1]. In addition, the Log Ki was over -5 in assay [6] and -7.9 in assay [7]. Moreover, the 50% effective dose (ED50) was 0.3 mg/kg in the assay on Rattus norvegicus [3] and over 10 mg/kg in the assay on Rattus norvegicus [4]. For the same compound, the pKB – broadly, the negative decadic logarithm of the KB, by convention in mol/L – was 7.8 in assay [9] and under 5 in assay [10].
Regarding `O=C(NCCCCN1CCN(c2ccccc2)CC1)c1ccc(Br)cc1`, the Ki on D(3) dopamine receptor was 0.00631 µM; on D(2) dopamine receptor it was 0.398 µM; in assay [1], 0.126 µM.
Regarding `COc1ccccc1N1CCN(CCCCNC(=O)c2ccc(-c3ccc(N)cc3)cc2)CC1`, the inhibition constant Ki on D(1A) dopamine receptor was 0.1 µM; at D(3) dopamine receptor, 0.0002 µM; on D(2) dopamine receptor, 0.02 µM; in [1], 0.0126 µM. The “Log Ki” value in assay [2] was -8.
